Like-named read-outs stand apart in the source and are kept apart here.

Test [1] concerns the target T1, HCV polymerase 1A (Δ21 NS5B, H77) (Hepatitis C virus genotype 1a, UniProt P27958).
T1 construct: 20 to 50 nM Δ21 NS5B
The test can be described thus: biochemical. The essentials: (§1)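 Δ21 NS5B (20–50 nM) was preincubated with inhibitor, 60–125 μM GTP and 2 mM MnCl2 (pH 7.4) for 15 min at RT. RNA synthesis on 5 nM template with 20 μM CTP/ATP and 1 μM ³H-UTP ran 2–4 h at RT. Spermine-precipitated RNA was filter-counted, and IC50 was fit with a tight-binding equation.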

The target in test [2] is T2, HCV polymerase 1B (Δ21 NS5B, HCV Strain 1B BK) (Hepatitis C virus genotype 1b, UniProt P26663).
T2 construct: 20 to 50 nM Δ21 NS5B
T2 sequence (P26663 2420-2989, stated change not applied): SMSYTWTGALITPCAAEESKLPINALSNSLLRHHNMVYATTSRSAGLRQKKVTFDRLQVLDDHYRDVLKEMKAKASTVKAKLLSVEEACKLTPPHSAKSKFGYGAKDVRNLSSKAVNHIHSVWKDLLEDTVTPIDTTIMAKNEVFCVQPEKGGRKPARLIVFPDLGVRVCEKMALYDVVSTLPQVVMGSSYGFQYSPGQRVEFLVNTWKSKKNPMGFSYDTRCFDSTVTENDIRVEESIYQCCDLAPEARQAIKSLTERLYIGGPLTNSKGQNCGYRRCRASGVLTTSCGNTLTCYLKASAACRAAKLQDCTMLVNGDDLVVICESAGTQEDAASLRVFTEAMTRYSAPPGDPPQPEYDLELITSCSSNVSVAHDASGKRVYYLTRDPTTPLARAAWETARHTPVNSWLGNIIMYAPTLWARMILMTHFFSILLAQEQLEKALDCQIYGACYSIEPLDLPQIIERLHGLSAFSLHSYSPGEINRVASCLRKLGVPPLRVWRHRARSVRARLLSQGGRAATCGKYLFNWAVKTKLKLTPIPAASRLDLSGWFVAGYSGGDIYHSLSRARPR
The test can be described thus: biochemical. The method, boiled down: as §1

In test [3] the test system is genotype 1a-H77 subgenomic replicon cell line. Description: HCV Polymerase Replicon Assay, genotype 1a-H77 (luciferase reporter). In kind it is cell-based. Conditions: Hepatitis C virus, 72 h, read-out: EC50 1a. For orientation: A replicon is a self-replicating genome or part of one, used to study replication in cells.
In test [4] the test system is genotype 1b-Con1 subgenomic replicon cell line. The test can be described thus: HCV Polymerase Replicon Assay, genotype 1b-Con1 (luciferase reporter). In kind it is cell-based. The conditions noted are these: Hepatitis C virus, 72 h, read-out: EC50 1b.
[5] abbreviates: replicon 1a-H77, luciferase, three days.
Where [6] appears, read: replicon 1b-Con1, luciferase, three days.

T1 sequence (P27958 2421-2990, stated change not applied): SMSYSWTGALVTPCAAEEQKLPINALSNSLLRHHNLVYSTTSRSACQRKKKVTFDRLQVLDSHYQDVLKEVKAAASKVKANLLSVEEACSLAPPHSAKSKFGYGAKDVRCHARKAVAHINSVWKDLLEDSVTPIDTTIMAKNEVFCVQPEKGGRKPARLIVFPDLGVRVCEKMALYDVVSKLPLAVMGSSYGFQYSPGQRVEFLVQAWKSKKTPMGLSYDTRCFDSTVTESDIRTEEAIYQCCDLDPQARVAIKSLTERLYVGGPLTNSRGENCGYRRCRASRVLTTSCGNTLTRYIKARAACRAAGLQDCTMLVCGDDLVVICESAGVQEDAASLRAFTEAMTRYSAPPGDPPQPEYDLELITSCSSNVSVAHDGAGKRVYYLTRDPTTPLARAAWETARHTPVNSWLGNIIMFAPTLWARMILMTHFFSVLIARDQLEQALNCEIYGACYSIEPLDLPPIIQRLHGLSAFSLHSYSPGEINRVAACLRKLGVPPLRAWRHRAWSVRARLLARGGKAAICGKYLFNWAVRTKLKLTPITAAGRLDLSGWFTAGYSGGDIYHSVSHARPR

For `COc1c(/C=C/c2ccc(NS(C)(=O)=O)cc2C(=O)N(C)C2CCS(=O)(=O)C2)cc(-n2ccc(=O)[nH]c2=O)cc1C(C)(C)C` (stereo not drawn) [IB-L1-1.18, 2-{(E)-2-[3-tert-butyl-5-(2,4-dioxo-3,4-dihydro-2H-pyrimidin-1-yl)-2-methoxy-phenyl]-vinyl}-N-(1,1-dioxo-tetrahydro-1lambda*6*-thiophen-3-yl)-5-methanesulfonylamino-N-methyl-benzamide], the values for the concentration for half-maximal inhibition (IC50) in test [1] and in test [2] were under 10 nM and 10 to 100 nM, respectively. Further, the 50% effective concentration (EC50) in test [3] and in test [4] was 10 to 100 nM in each case.
`CCOc1c(/C=C/c2ccc(NS(C)(=O)=O)cc2)cc(-n2ccc(=O)[nH]c2=O)cc1C(C)(C)C` [IB-L1-1.30, (E)-N-(4-(3-tert-butyl-5-(2,4-dioxo-3,4-dihydropyrimidin-1(2H)-yl)-2-ethoxystyryl)phenyl)methanesulfonamide]: the 50% inhibitory concentration (IC50) in test [1] and in test [2] was 10 to 100 nM each time. Moreover, the EC50 (as a rule, the concentration needed to bring the measured effect to its halfway point) in test [3] (setting [5]) was in the range of 100 to 1000 nM; in test [4] (setting [6]) it was 10 to 100 nM.
Turning to `COc1c(C2CC2c2ccc(NS(C)(=O)=O)cc2)cc(N2CCC(=O)NC2=O)cc1C(C)(C)C` (stereo not drawn) [IA-L8-1.1, N-(4-(2-(3-tert-butyl-5-(2,4-dioxotetrahydropyrimidin-1(2H)-yl)-2-methoxyphenyl)cyclopropyl)phenyl)methanesulfonamide], the half-inhibitory concentration (IC50) in test [1] and in test [2] was 100 to 1000 nM each time. The EC50 in test [3] (setting [5]) and in test [4] (setting [6]) was 100 to 1000 nM throughout.
With `COc1c(/C=C/c2ccc(NS(C)(=O)=O)cc2C(=O)N(C)C)cc(-n2ccc(=O)[nH]c2=O)cc1C(C)(C)C` [IB-L1-1.14, 2-{(E)-2-[3-tert-Butyl-5-(2,4-dioxo-3,4-dihydro-2H-pyrimidin-1-yl)-2-methoxy-phenyl]-vinyl}-5-methanesulfonylamino-N,N-dimethyl-benzamide], the values for the IC50 in test [1] and in test [2] were under 10 nM and 10 to 100 nM, respectively. The half-maximal effective concentration (EC50) in test [3] was 10 to 100 nM; in test [4], under 10 nM.
In the case of `COc1c(I)cc(-n2ccc(=O)[nH]c2=O)cc1/C=C/c1ccc(NS(C)(=O)=O)cc1` [IB-L1-1.51, (E)-N-(4-(5-(2,4-dioxo-3,4-dihydropyrimidin-1(2H)-yl)-3-iodo-2-methoxystyryl)phenyl)methanesulfonamide], the half-maximal inhibitory concentration (IC50) in test [1] and in test [2] was 10 to 100 nM in each case. Also, the concentration giving a half-maximal response (EC50) in test [3] (setting [5]) was over 1000 nM; in test [4] (setting [6]) it was 10 to 100 nM.
Turning to `COCc1cc(NS(C)(=O)=O)ccc1/C=C/c1cc(-n2ccc(=O)[nH]c2=O)cc(C(C)(C)C)c1OC` [IB-L1-1.13, (E)-N-(4-(3-tert-butyl-5-(2,4-dioxo-3,4-dihydropyrimidin-1(2H)-yl)-2-methoxystyryl)-3-(methoxymethyl)phenyl)methanesulfonamide], the IC50 (commonly the concentration that inhibits the measured activity by half) in test [1] is under 10 nM; in test [2], 10 to 100 nM. Also, the results for the EC50 in test [3] and in test [4] were 10 to 100 nM and under 10 nM, respectively.
As for `COc1c(/C=C/c2ccc(NS(C)(=O)=O)cc2C(N)=O)cc(-n2ccc(=O)[nH]c2=O)cc1C(C)(C)C` [IB-L1-1.21, 2-{(E)-2-[3-tert-butyl-5-(2,4-dioxo-3,4-dihydro-2H-pyrimidin-1-yl)-2-methoxy-phenyl]-vinyl}-5-methanesulfonylamino-benzamide], the IC50 in test [1] is under 10 nM; in test [2] it was 10 to 100 nM. Also, the concentration giving a half-maximal response (EC50) in test [3] was 10 to 100 nM; in test [4], under 10 nM.
In the case of `COc1c(/C=C/c2ccc(NS(C)(=O)=O)cc2N)cc(-n2ccc(=O)[nH]c2=O)cc1C(C)(C)C` [IB-L1-1.28, (E)-N-(3-amino-4-(3-tert-butyl-5-(2,4-dioxo-3,4-dihydropyrimidin-1(2H)-yl)-2-methoxystyryl)phenyl)methanesulfonamide], the IC50 in test [1] and in test [2] was 10 to 100 nM in each case. For the same molecule, the EC50 in test [3] and in test [4] was under 10 nM in each case.
As to `COc1c(/C=C/c2ccc(NS(C)(=O)=O)cc2C=O)cc(-n2ccc(=O)[nH]c2=O)cc1C(C)(C)C` [IB-L1-1.6, N-(4-{(E)-2-[3-tert-Butyl-5-(2,4-dioxo-3,4-dihydro-2H-pyrimidin-1-yl)-2-methoxy-phenyl]-vinyl}-3-formyl-phenyl)-methanesulfonamide], the 50% inhibitory concentration (IC50) in test [1] is under 10 nM; in test [2], 10 to 100 nM. The half-maximal effective concentration (EC50) in test [3] and in test [4] was under 10 nM throughout.
Turning to `COCCN(C)C(=O)c1cc(NS(C)(=O)=O)ccc1/C=C/c1cc(-n2ccc(=O)[nH]c2=O)cc(C(C)(C)C)c1OC` [IB-L1-1.24, 2-{(E)-2-[3-tert-butyl-5-(2,4-dioxo-3,4-dihydro-2H-pyrimidin-1-yl)-2-methoxy-phenyl]-vinyl}-5-methanesulfonylamino-N-(2-methoxy-ethyl)-N-methyl-benzamide], the IC50 in test [1] and in test [2] was 10 to 100 nM throughout. Further, the EC50 in test [3] is 10 to 100 nM; in test [4], under 10 nM.
With `COc1c(/C=C/c2ccc(NS(C)(=O)=O)cc2CN2CCCC2)cc(-n2ccc(=O)[nH]c2=O)cc1C(C)(C)C` [IB-L1-1.33, N-(4-{(E)-2-[3-tert-Butyl-5-(2,4-dioxo-3,4-dihydro-2H-pyrimidin-1-yl)-2-methoxy-phenyl]-vinyl}-3-pyrrolidin-1-ylmethyl-phenyl)-methanesulfonamide], the half-maximal inhibitory concentration (IC50) in test [1] and in test [2] was 100 to 1000 nM throughout. Moreover, the EC50 in test [3] lay in the range of 100 to 1000 nM; in test [4] it was 10 to 100 nM.
Take `COc1c(/C=C(\Cl)c2ccc(NS(C)(=O)=O)cc2)cc(N2CCC(=O)NC2=O)cc1C(C)(C)C` [IA-L1-1.3, (Z)-N-(4-(2-(3-tert-butyl-5-(2,4-dioxotetrahydropyrimidin-1(2H)-yl)-2-methoxyphenyl)-1-chlorovinyl)phenyl)methanesulfonamide]: the half-maximal inhibitory concentration (IC50) in test [1] and in test [2] was under 10 nM each time. The half-maximal effective concentration (EC50) in test [3] was 10 to 100 nM; in test [4], under 10 nM.
`CO/C(=C\c1cc(N2CCC(=O)NC2=O)cc(C(C)(C)C)c1OC)c1ccc(NS(C)(=O)=O)cc1` [IA-L1-1.17, (Z)-N-(4-(2-(3-tert-butyl-5-(2,4-dioxotetrahydropyrimidin-1(2H)-yl)-2-methoxyphenyl)-1-methoxyvinyl)phenyl)methanesulfonamide]: the concentration for half-maximal inhibition (IC50) in test [1] and in test [2] was 10 to 100 nM each time. Moreover, the EC50 in test [3] and in test [4] was 10 to 100 nM each time.
Regarding `CC(C)(C)c1cc(-n2ccc(=O)[nH]c2=O)cc(/C=C/c2ccc(NS(C)(=O)=O)cc2)c1Cl` [IB-L1-1.12, N-(4-{(E)-2-[3-tert-Butyl-2-chloro-5-(2,4-dioxo-3,4-dihydro-2H-pyrimidin-1-yl)-phenyl]-vinyl}-phenyl)-methanesulfonamide], the IC50 in test [1] was under 10 nM; in test [2], 10 to 100 nM. Moreover, the EC50 in test [3] (setting [5]) and in test [4] (setting [6]) was 10 to 100 nM throughout.
In the case of `COc1c(/C=C/c2ccc(NS(C)(=O)=O)cc2CO)cc(-n2ccc(=O)[nH]c2=O)cc1C(C)(C)C` [IB-L1-1.10, (E)-N-(4-(3-tert-butyl-5-(2,4-dioxo-3,4-dihydropyrimidin-1(2H)-yl)-2-methoxystyryl)-3-(hydroxymethyl)phenyl)methanesulfonamide], the IC50 in test [1] is under 10 nM; in test [2] it was 10 to 100 nM. In addition, the EC50 in test [3] and in test [4] was under 10 nM in each case.

For the origin of these results see patent US8178548B2, “Anti-infective agents and uses thereof” (priority 2007, dated 2012).
